Test results from patent publication US11597954B2, “Bioproduction of phenethyl alcohol, aldehyde, acid, amine, and related compounds” (National University of Singapore, priority 2017, dated 2023).
pKi: −log10 of the molar value.

How the values were obtained:
[1] = Partition coefficient in aqueous-organic biphasic system; assay type: physicochemical; settings: for Partition coefficient K value: phase ratio 1:1
Procedure: FIGS. 18a and 18b show (FIG. 18a) partition coefficient of 2-PE in aqueous-organic biphasic system. Partition coefficient measured at a phase ratio of 1:1. KP buffer (100 mM, pH 8.0) was utilized as the aqueous buffer. All data were obtained from the mean values of triplicate with standard deviations through HPLC analysis. K value for L-phenylalanine was observed as ˜0 in all the respective organic solvents mentioned and (FIG. 18b) screening of 7 different organic solvent for the one-pot production of 2-PE from L-phenylalanine with the KP buffer (100 mM, pH 8.0) containing 0.5% glucose and 50 mM L-phenylalanine.
In-situ product removal technique via extraction have been conducted to remove the obtained 2-PE from the aqueous phase and make its concentration below the inhibitory level. We investigated different type of organic solvents and ionic liquids to perform the extractive biotransformation for 2-PE production via styrene-derived pathway from L-phenylalanine, starting from the analysis of their partition coefficients in the biphasic system. Product and substrate coefficient partitions in organic and aqueous phase were determined by adding different concentration of 2-PE and L-phenylalanine, respectively, into KP buffer (100 mM, pH 8.0) together with the respective organic solvents. Reaction mixtures were incubated for 1 h (280 rpm, 30° C.).

[2] = tested on: cells; settings: literature; cited from earlier work
[3] = tested on: E. coli (R-PAL-PAD_E-SMO-SOI-PAR); assay: Apparent kinetics of the whole-cells (Lineweaver-Burk plot) with and without 2-PE; assay type: cell-based; settings: competitive inhibition; 3 mM 2-PE, 15 minutes, 5 g cdw/L cells, 10 mM L-phenylalanine, 30° C.
Procedure: (§1) The reaction for FIG. 17b was done at 30° C. and 250 rpm in 2 ml KP buffer (100 mM, pH 8.0) containing 0.5% (w/v) glucose, 5 g cdw/L of cell suspension, 10 mM L-phenylalanine, and (•) 0 or (▴) 3 mM of 2-PE in the aqueous phase, with n-hexadecane in the organic phase.
To further investigate the product inhibition, the apparent kinetics of the whole-cells was measured and determined using Lineweaver-Burk plot. 2-PE concentration of 3 mM was used for 15 minutes in order to determine the kinetic, thus the product toxicity towards the cells could be neglected.

[4] = tested on: E. coli (pRSF-PAL-PAD_pET-SMO-SOI-PAR); assay type: cell-based
Procedure: as §1
The product inhibition was investigated by adding different concentration of 2-PE to the cell suspension (10 g cdw/L) of E. coli (pRSF-PAL-PAD_pET-SMO-SOI-PAR) in KP buffer (100 mM, pH 8.0) containing 0.5% glucose in aqueous phase with n-hexadecane as the organic phase, followed by the incubation at 30° C. and 250 rpm for 3 h.
Biotransformation was done in aqueous phase with KP buffer (100 mM, pH 8.0) containing cell suspension (10 g cdw/l), 0.5% glucose, and 50 mM L-phenylalanine as initial substrate while n-hexadecane as the organic phase (250 rpm, 2 h, 30° C.)

Row | Compound | Partition coefficient K value ([1]; all the respective organic solvents vs KP buffer (100 mM, pH 8.0)) | Concentration of 2-PE that will inhibit the cells [2] | pKi [3] | Partition coefficient K value ([1]; most of the organic solvents used vs KP buffer (100 mM, pH 8.0)) | Partition coefficient ([1]; n-hexadecane vs KP buffer (100 mM, pH 8.0), compared with the other organic solvents) | 2-PE concentration in the aqueous phase that started to inhibit the biotransformation ([4]; 3 h pretreatment, then 50 mM L-phenylalanine, 2 h, 30° C.) | Toxicity of 2-PE to the cells ([4]; cells 10 g cdw/L incubated with 2-PE 3 h, 30° C., KP buffer pH 8.0 / n-hexadecane) | Biotransformation activity of cells pretreated with 2-PE ([4]; pretreated with 90 mM 2-PE)
1 | N[C@@H](Cc1ccccc1)C(=O)O [L-phenylalanine] | ~0 | – | – | – | – | – | – | –
2 | OCCc1ccccc1 [2-PE, 2-Phenylethanol] | – | 2-3 gr/L | 2.32 | > 1 | much lower | above 30 mM | toxic | almost no activity
